The record followed here is publication PMC11647683, “Structural Aspects of Mycobacterium tuberculosis DNA Gyrase Targeted by Novel Bacterial Topoisomerase Inhibitors” (ACS Medicinal Chemistry Letters, 2024).

Molecules are shown by their SMILES.

The test system of the assay is M. tuberculosis LP-FQ-RM9. Format: cell-based, Mycobacterium tuberculosis. Conditions: for IC50: read-out: Antituberculosis activity M. tuberculosis LP-FQ-RM9 IC50; for IC90: read-out: Antituberculosis activity M. tuberculosis LP-FQ-RM9 IC90.

One may read the IC50 as the point on the concentration scale where inhibition reaches its midpoint. What is called IC90 is the point of the concentration-response curve where the effect stands at 90%. `COc1ccc2nccc(CCN3CCC(NCc4ccc(Br)c(F)c4)CC3)c2n1` [Compound 1]: the IC50 was determined as 380 ± 50 nM and the IC90 came out at 520 ± 145 nM.

As to `COc1ccc2nccc(CCN3CCC(NCc4ccc(I)c(F)c4)CC3)c2n1` [Compound 2], the IC50 was 420 ± 80 nM and the IC90 stood at 580 ± 180 nM.

Take `COc1ccc2nccc(CCN3CCC(NCc4cc(F)c(Cl)c(F)c4)CC3)c2n1` [Compound 3]: the IC50 was 290 nM and the IC90 is 430 nM.

`COc1ccc2nccc(CCN3CCC(NCc4cc(F)c(Br)c(F)c4)CC3)c2n1` [Compound 4]: the IC90 came out at 260 nM.

With `COc1ccc2nccc(C(O)CC3CCC(NCc4cc(F)c(Br)c(F)c4)CC3)c2n1` (centres unmarked) [Compound 5], the IC90 is 1000 ± 75 nM.

For the compound `C[C@H]1COc2c(N3CCN(C)CC3)c(F)cc3c(=O)c(C(=O)O)cn1c23` [Levofloxacin, reference compound], the IC50 is above 10000 nM and the IC90 was above 10000 nM. Further, under “result in words”, the “activity against the fluoroquinolone-resistant strain” value is listed as “no activity was observed”.
